Patent US20200397816A1, “METHODS TO TREAT INFLAMMATORY AND SMOOTH MUSCLE CELL PROLIFERATION DISORDERS” (THE TRUSTEES OF INDIANA UNIVERSITY, priority 2019, published 2020)

How the values were obtained:
EGR1 [1] = test: EGR1 protein western blot (whole cell lysates, nuclear fractions) in RAW 264.7 macrophages; assay type: cell-based, mouse; settings: macrophages (RAW 264.7); MEK inhibitor 10 μM; EMAP II 2 hours
Protocol: (§1) RAW 264.7 (ATCC) mouse macrophages and Human Embryonic Kidney (HEK) 293T cells were cultured in DMEM media with 10% fetal bovine serum […] and glutamine HEPES buffer and beta-mercaptoethanol were added to the growth medium used for RAW 264.7 macrophages. Primary human pulmonary artery smooth muscle cells (hPASMC) purchased from Lonza (Walkersville, Md.) were cultured in complete growth medium containing smooth muscle growth media-2 (SmGM-2) with 10% FBS and growth factors provided as a kit by the supplier (Lonza, (Walkersville, Md.). THP-1 human monocyte cells were cultured in RPMI 1640 with 10% FBS and glutamine Cells were cultured in a humidified atmosphere with 5% CO2 at 370 C. For all studies passages 5-14 were used for RAW 264.7 and passages 5-10 were used for hPASMCs. For treatment studies, subconfluent cells plated in multi-well plates were serum starved and if required, pretreated for with inhibitors before stimulating with 2 μg/mL recombinant EMAP II.
(§2) After appropriate treatments, protein lysates were prepared by using RIPA buffer supplemented with phosphatase and protease inhibitors (Thermo Fischer Scientific). Alpha-tubulin was used as a loading control. For nuclear and cytoplasmic fractionation, NE-PER kit from Thermo Fischer Scientific was used. Western blots were performed according to standard methods and quantified using densitometry using Image Studio Lite software from LI-COR Biosciences.
RAW 264.7 (ATCC) mouse macrophages and HEK-293T (ATCC) cells were cultured in DMEM media with 10% (v/v) fetal bovine serum (FBS) and 2 mM glutamine HEPES buffer and beta-mercaptoethanol were added to the growth medium used for RAW 264.7 macrophages. Primary human pulmonary artery smooth muscle cells (hPASMC) purchased from Lonza (Walkersville, Md.) were cultured in complete growth medium containing smooth muscle growth media-2 (SmGM-2) with 10% FBS and growth factors provided as a kit by the supplier (Lonza, (Walkersville, Md.). THP-1 human monocyte cells were cultured in RPMI 1640 with 10% FBS and glutamine Cells were cultured in a humidified atmosphere with 5% CO2 at 37° C. For all studies passages 5-14 were used for RAW 264.7 and passages 5-10 were used for hPASMCs. For treatment studies, subconfluent cells plated in multi-well plates were serum starved and if required, pretreated with inhibitors before stimulation with 2 μg/mL recombinant EMAP II.
as §2, with “Fisher” for “Fischer”, “For nuclear and cytoplasmic fractionation, NE-PER kit from Thermo Fischer Scientific was used.” left out

EGR1 [2] = test: EGR1 protein western blot and immunofluorescence in hPASMC; assay type: cell-based, human; settings: SMCs (hPASMC); MEK inhibitor 10 μM; EMAP II 1 hour
Protocol: as §1, §2
Primary hPASMCs cells or human THP-1 macrophages were seeded in Nunc Lab-Tek™ II 4-well imaging plates (Thermo Fisher Scientific) chamber well slides and cultured in growth medium. After the serum starvation cells were stimulated with EMAP II. Treated cells were rinsed with PBS and fixed with 4% paraformaldehyde at room temperature for 15 min and permeabilized with 0.1% Triton X-100 at room temperature for 10 min After washing with PBS three times, the cells were incubated with EGR1, 1amin, or pSphK1 antibody at 40C overnight. The cells were then rinsed with PBS three times and subsequently incubated with respective secondary antibody conjugated with Alex Fluor 647 and 488 or Phalloidin 488 at room temperature for 1 h. The cells were rinsed with PBS three times and coverslips were mounted with SlowFade Gold Antifade Mountant with DAPI (Thermo Fischer Scientific) and the cells were examined under Olympus microscope with 40× for EGR1 expression and with 60× for pSphK1 water immersion.
Knockdown of endogenous EGR1 was carried out by transfecting with 25 nM final concentration of ON-TARGETplus siRNAs specific for EGR1 or non-targeting control purchased from GE Dharmacon (Lafayette,CO) using Viromer Blue (Lipocalyx) per manufacturer's instructions. Cells were stimulated with EMAP II 48 h post-transfection.
RAW 264.7 (ATCC) mouse macrophages and HEK-293T (ATCC) cells were cultured in DMEM media with 10% (v/v) fetal bovine serum (FBS) and 2 mM glutamine HEPES buffer and beta-mercaptoethanol were added to the growth medium used for RAW 264.7 macrophages. […]

EGR1 [3] = test: EGR1 transcripts qRT-PCR in RAW 264.7 macrophages; assay type: cell-based, mouse; settings: 10 μM pretreatment, EMAP II 45 minutes, normalized against Hprt1
Protocol: (§3) RAW 264.7 (ATCC) mouse macrophages and Human Embryonic Kidney (HEK) 293T cells were cultured in DMEM media with 10% fetal bovine serum […] and glutamine HEPES buffer and beta-mercaptoethanol were added to the growth medium used for RAW 264.7 macrophages. […]
(§4) Total RNA was extracted with TriZol using standard RNA extraction protocol and reverse transcribed with SuperScript III Reverse Transcriptase (Thermo Fischer Scientific). SphK1, Tnf, Il6, EGR1, Gapdh, Hprt1 transcripts were quantified using PrimePCR SYBR Green assays from BioRad. […]
(§5) Total RNA was extracted with TriZol using standard RNA extraction protocol and reverse transcribed with SuperScript III Reverse Transcriptase (Thermo Fisher Scientific). SPHK1, Tnf, Il6, EGR1, Gapdh, Hprt1 transcripts were quantified using PrimePCR SYBR Green assays from BioRad.

EGR1 [4] = test: EGR1 transcripts qRT-PCR in hPASMC; assay type: cell-based, human; settings: SMCs; 10 μM pretreatment; EMAP II 45 minutes; normalized against Gapdh
Protocol: as §3, §4, §5

pSTAT3 (Y705) = test: EMAP II induced pSTAT3 western blot in RAW 264.7 macrophages; assay type: cell-based, mouse; settings: RAW 264.7 macrophages, EMAP II 24 hours
Protocol: as §2
as §2, with “(Thermo Fisher” for “(Thermo Fischer”

[5] = test system: STAT3 transcription reporter plasmid; test: STAT3 transcription reporter luciferase assay in HEK293-T cells; assay type: cell-based, human; settings: inhibitor pretreatment 1 hour, luciferase after 24 hours
Protocol: (§6) Transfection and luciferase assay. Human Embryonic Kidney (HEK) 293-T cells cultured in DMEM media containing 10% serum were reverse co-transfected with pGL4.47fluc2P/SIE/Hygrol and pGL4.74 [hRluc/TK] using Attractene Transfection Reagent (301005, Qiagen) as per manufacturer's protocol. Pretreated with inhibitors for 1 hour as required. After the treatment cells were incubated for 24 hours and luciferase activity was measured using Dual-Glo Luciferase Assay (E2920, Promega) per manufacturer's guidelines.
as §6, with “HEK” for “Transfection and luciferase assay. Human Embryonic Kidney (HEK)”

Question: How did the “EMAP II induced EGR1 protein expression” value (EGR1 [1]) turn out when `CC(=O)Nc1cccc(-n2c(=O)n(C3CC3)c(=O)c3c(Nc4ccc(I)cc4F)n(C)c(=O)c(C)c32)c1` [iERK1, Trametinib, reference compound] was run?
Answer: blocked

Question: And the “EMAP II induced EGR1 protein expression” value (EGR1 [2])?
Answer: blocked

Question: What about the “EMAP II induced EGR1 transcription” value (EGR1 [3]) of the same compound?
Answer: inhibited

Question: What about the “EMAP II induced EGR1 transcription” value (EGR1 [4]) of the same compound?
Answer: inhibited

Question: With `O=C(NOCC1CC1)c1cc(Br)c(F)c(F)c1Nc1ccc(I)cc1Cl` [iERK, PD184161, reference compound] as the compound, how does the “EMAP II induced pSTAT3 (pSTAT3/STAT3)” value (pSTAT3 (Y705); inhibitor pretreatment 10 μM) read?
Answer: significantly inhibited

Question: And the “EMAP II induced EGR1 protein expression” value (EGR1 [1])?
Answer: blocked

Question: What about the “EMAP II induced EGR1 protein expression” value (EGR1 [2]) of the same compound?
Answer: blocked

Question: How did the “EMAP II induced pSTAT3 (pSTAT3/STAT3)” value (pSTAT3 (Y705); inhibitor pretreatment 1 μM) turn out when `N#CC[C@H](C1CCCC1)n1cc(-c2ncnc3[nH]ccc23)cn1` [iJAK1/2, Ruxolitinib] was run?
Answer: significantly inhibited

Question: With `CCCCCCc1cccc(NC(=O)[C@H](N)CCP(=O)(O)O)c1` [iS1PR1, W146] as the compound, how does the “EMAP II induced pSTAT3 (pSTAT3/STAT3)” value (pSTAT3 (Y705); inhibitor pretreatment 1 μM) read?
Answer: significantly inhibited

Question: With `Cc1nn(C)c2nc(NNC(=O)Nc3cc(Cl)nc(Cl)c3)cc(C(C)C)c12` [iS1PR2, JTE 013] as the compound, how does the “EMAP II induced pSTAT3 (pSTAT3/STAT3)” value (pSTAT3 (Y705); inhibitor pretreatment 1 μM) read?
Answer: significantly inhibited

Question: How did the “EMAP II induced pSTAT3 (pSTAT3/STAT3)” value (pSTAT3 (Y705); inhibitor pretreatment 1 μM) turn out when `CC(C)(C)C(=O)/C(=N/c1ccc(Cl)cc1)NNc1ccc(Cl)cc1` [iS1PR3, TY 52156] was run?
Answer: significantly inhibited

Question: With `Cc1cc(CS(=O)(=O)c2ccccc2)cc(OCc2ccc(CN3CCC[C@@H]3CO)cc2)c1` [iSphK1, PF543] as the compound, how does the “EMAP II induced pSTAT3 (pSTAT3/STAT3)” value (pSTAT3 (Y705); inhibitor pretreatment 100 nM) read?
Answer: significantly inhibited

Question: And the “EMAP II induced pSTAT3 (pSTAT3/STAT3)” value (pSTAT3 (Y705); inhibitor pretreatment 100 nM, listed as PF543)?
Answer: inhibited

Question: What about the “EMAP II induced pSTAT3 (pSTAT3/STAT3)” value (pSTAT3 (Y705); inhibitor pretreatment 100 nM, listed as iSPHK1) of the same compound?
Answer: significantly inhibited

Question: What about the “EMAP II induced luminescence of STAT3 transcription reporter plasmid” value [5] of the same compound?
Answer: significantly inhibited
